From patent USRE39088E1, “Amide compounds and use of the same” (Japan Tobacco, Inc., priority 1995, dated 2006)
Counter-ions that a name gives are not always drawn.

What follows are compounds tested on IL-8 (assay: Suppression of production of inflammatory cytokines: IL-8 in LPS-stimulated human peripheral blood monocytes (ELISA)). Conditions: Homo sapiens, Monocyte, 20 h, supernatant 20 hours after LPS.
Format: cell-based
Procedure: Suppression of production of inflammatory cytokines
Thirty ml of human peripheral blood added with heparin was placed on Ficol-Paque (15 ml), and centrifuged at 400 G for 40 minutes at room temperature. The obtained monocyte fraction layers were collected and washed three times with E-MEM medium. The cells were adjusted to a final concentration of 0.5×10^5 cells/800 μl with RPMI-1640 medium containing 5% bovine fetal serum (2-mercaptoethanol), and seeded in a 24 well plant by 800 μl. A test sample (100 μl) was added and 100 μl of lipopolysarcharide (LPS, 100 μg/ml) was added one hour later. The supernatant was taken at 20 hours after stimulation with LPS, and amounts of various cytokines were determined using an ELISA kit.
With `CNCCCCOc1ccc(C(=O)N[C@@H](Cc2ccccc2)C(=O)OC)c(O)c1Cl` [Example 7] the IC50 was 8 µM.
`CNCCOc1c(Cl)cc(C(=O)N[C@@H](Cc2ccccc2)C(=O)OC)c(O)c1Cl` [Example 11] gave an IC50 of 0.4 µM.
In the case of `CCNCCCCOc1c(Cl)cc(C(=O)N[C@@H](Cc2ccccc2)C(=O)OC)c(O)c1Cl` [Example 16], the IC50 is reported as 0.03 µM.
`CCOC(=O)C(Cc1ccccc1)N(C)C(=O)c1cc(Cl)c(OCCCCN)c(Cl)c1O` (stereo not shown) [Example 20] gave an IC50 of 29 µM.
Compound `CCOC(=O)C(Cc1ccccc1)NC(=O)c1cc(Cl)c(OCCCCNC)c(Cl)c1O` (stereo not shown) [Example 21] has an IC50 of under 0.01 µM.
With `CCOC(=O)C(Cc1ccccc1)NC(=O)c1cc(Cl)c(OCCCCCCCN)c(Cl)c1O` (stereo not shown) [Example 26] the IC50 was 0.009 µM.
`CC(C)COC(=O)[C@H](Cc1ccccc1)NC(=O)c1cc(Cl)c(OCCCCN)c(Cl)c1O` [Example 28] gave an IC50 of under 0.01 µM.
For `CNCCCCOc1c(Cl)cc(C(=O)N[C@@H](Cc2ccccc2)C(=O)OCC(C)C)c(O)c1Cl` [Example 29], the IC50 was under 0.01 µM.
`CC(C)(C)OC(=O)[C@H](Cc1ccccc1)NC(=O)c1cc(Cl)c(OCCCCN)c(Cl)c1O` [Example 30] gave an IC50 of 0.6 µM.
Compound `CNCCCCOc1c(Cl)cc(C(=O)N[C@@H](CC2CCCCC2)C(=O)OC)c(O)c1Cl` [Example 34] has an IC50 of 2 µM.
`CCOC(=O)COC(=O)[C@H](Cc1ccccc1)NC(=O)c1cc(Cl)c(OCCCCN)c(Cl)c1O` [Example 43] gave an IC50 of 0.03 µM.
`CC1CCCC(C)C1OC(=O)[C@H](Cc1ccccc1)NC(=O)c1cc(Cl)c(OCCCCN)c(Cl)c1O` (stereo partly shown) [Example 47] was tested, and the IC50 was 3 µM.
`CN1CCC(OC(=O)[C@H](Cc2ccccc2)NC(=O)c2cc(Cl)c(OCCCCN)c(Cl)c2O)CC1` [Example 48] gave an IC50 of 0.2 µM.
`NCCCCOc1c(Cl)cc(C(=O)N[C@@H](Cc2ccccc2)C(=O)OC2C3CC4CC(C3)CC2C4)c(O)c1Cl` (stereo partly shown) [Example 49] was tested, and the IC50 was 0.02 µM.
`CN(C)CCCCOc1c(Cl)cc(C(=O)N[C@@H](Cc2ccccc2)C(=O)OCc2ccccc2)c(O)c1Cl` [Example 55] showed an IC50 of under 0.01 µM.
For `CC(OC(=O)[C@H](Cc1ccccc1)NC(=O)c1cc(Cl)c(OCCCCN)c(Cl)c1O)N1CCNCC1` (stereo partly shown) [Example 56], the IC50 was 4 µM.
Work on `NCCCCOc1c(Cl)cc(C(=O)N[C@@H](Cc2ccccc2)C(=O)ON=C2CCCCC2)c(O)c1Cl` [Example 57] yielded an IC50 of 0.05 µM.
`COC(=O)[C@H](Cc1ccccc1)NC(=O)c1cc(Cl)c(OCCN2CCN(C)CC2)c(Cl)c1O` [Example 58] showed an IC50 of 0.02 µM.
`COC(=O)[C@H](Cc1ccccc1)NC(=O)c1cc(Cl)c(OCCN2CCN(C)C(C)C2)c(Cl)c1O` (stereo partly shown) [Example 63] gave an IC50 of 0.1 µM.
For `CCOC(=O)C(Cc1ccccc1)NC(=O)c1cc(Cl)c(OCCN2CCNCC2)c(Cl)c1O` (stereo not shown) [Example 64], the IC50 was 0.05 µM.
With `CCOC(=O)C(Cc1ccccc1)NC(=O)c1cc(Cl)c(OCCCN2CCNCC2)c(Cl)c1O` (stereo not shown) [Example 67] the IC50 was 0.05 µM.
For `CCOC(=O)C(Cc1ccccc1)NC(=O)c1cc(Cl)c(OCCCN2CCN(C)CC2)c(Cl)c1O` (stereo not shown) [Example 68], the IC50 was 0.001 µM.
In the case of `CCOC(=O)C(Cc1ccccc1)NC(=O)c1cc(Cl)c(OCCC2CCNCC2)c(Cl)c1O` (stereo not shown) [Example 69], the IC50 is reported as under 0.001 µM.
In the case of `CCOC(=O)C(Cc1ccccc1)NC(=O)c1cc(Cl)c(OCCC2CCN(C)CC2)c(Cl)c1O` (stereo not shown) [Example 70], the IC50 is reported as 0.006 µM.
In the case of `CCOC(=O)C(Cc1ccccc1)NC(=O)c1cc(Cl)c(OCCCCNC)cc1O` (stereo not shown) [Example 71], the IC50 is reported as 0.04 µM.
For `CCOC(=O)C(Cc1ccccc1)NC(=O)c1cc(Cl)c(OCCCCN(C)C)cc1O` (stereo not shown) [Example 72], the IC50 was 0.1 µM.
`CCOC(=O)C(Cc1ccccc1)NC(=O)c1cc(Br)c(OCCCCN)cc1O` (stereo not shown) [Example 74] was tested, and the IC50 was 0.07 µM.
`CNCCCCOc1cc(O)c(C(=O)N[C@@H](Cc2ccccc2)C(=O)OC)cc1C` [Example 76] gave an IC50 of 0.3 µM.
`CCOC(=O)C(Cc1ccccc1)NC(=O)c1cc(C)c(OCCCCNC)c(C)c1O` (stereo not shown) [Example 77] showed an IC50 of 3 µM.
Compound `CNCCCCOc1c(Cl)cc(C(=O)N[C@@H](Cc2ccccc2)C(=O)OCCN(C(C)C)C(C)C)c(O)c1Cl` [Example 85] has an IC50 of 0.07 µM.
Work on `COC(=O)[C@H](Cc1ccccc1)NC(=O)c1cc(Cl)c(OCCCCO)c(Cl)c1O` [Example 87] yielded an IC50 of 0.2 µM.
`CNCCCCCc1ccc(C(=O)N[C@@H](Cc2ccccc2)C(=O)OC)c(O)c1` [Example 89] showed an IC50 of 0.6 µM.
With `CNCCCCCc1c(Cl)cc(C(=O)N[C@@H](Cc2ccccc2)C(=O)OC)c(O)c1Cl` [Example 91, N-[3,5-Dichloro-2-hydroxy-4-(5-methylaminopentyl)benzoyl]-L-phenylalanine methyl ester hydrochloride] the IC50 was 0.001 µM.
For `CCOC(=O)C(Cc1ccccc1)NC(=O)c1cc(Cl)c(CCCCCN(C)C)cc1O` (stereo not shown) [Example 94], the IC50 was 1 µM.
`CCOC(=O)C(Cc1ccccc1)NC(=O)c1cc(Cl)c(CCCC2CCN(C)CC2)c(Cl)c1O` (stereo not shown) [Example 100] was tested, and the IC50 was 0.001 µM.
Work on `CCOC(=O)C(Cc1ccccc1)NC(=O)c1cc(Cl)c(CCCC2CCNCC2)c(Cl)c1O` (stereo not shown) [Example 101] yielded an IC50 of 0.003 µM.
`CCOC(=O)C(Cc1ccccc1)NC(=O)c1cc(Cl)c(CCCN2CCNCC2)c(Cl)c1O` (stereo not shown) [Example 102] gave an IC50 of 0.002 µM.
`CCOC(=O)C(Cc1ccccc1)NC(=O)c1cc(Cl)c(CCCN2CCC(N)CC2)c(Cl)c1O` (stereo not shown) [Example 103] gave an IC50 of 0.7 µM.
`CNCCCCOc1c(Cl)cc(C(=O)N[C@@H](Cc2ccccc2)C(=O)OC)c(OC(=O)COC(C)=O)c1Cl` [Example 110] was tested, and the IC50 was under 0.01 µM.
Compound `COC(=O)[C@H](Cc1ccccc1)NC(=O)c1cc(Cl)c(OCCN2CCNC(C)C2)c(Cl)c1OC(C)=O` (stereo partly shown) [Example 122] has an IC50 of under 0.01 µM.
For `CCOC(=O)C(Cc1ccccc1)NC(=O)c1cc(Cl)c(OCCN2CCN(C)CC2)c(Cl)c1OC(C)=O` (stereo not shown) [Example 125], the IC50 was 0.01 µM.
Work on `CC1CN(CCOc2c(Cl)cc(C(=O)N[C@@H](Cc3ccccc3)C(=O)O)c(O)c2Cl)CCN1` (stereo partly shown) [Example 129] yielded an IC50 of 2 µM.
`CN(C)CCCCCc1c(Cl)cc(C(=O)N[C@@H](Cc2ccccc2)C(=O)O)c(O)c1Cl` [Example 133] gave an IC50 of 0.2 µM.
In the case of `CNCCCCNc1c(Cl)cc(C(=O)N[C@@H](Cc2ccccc2)C(=O)OC)c(O)c1Cl` [Example 136, N-[3,5-Dichloro-2-hydroxy-4-(4-methylaminobutylamino)benzoyl]-L-phenylalanine methyl ester dihydrochloride], the IC50 is reported as 0.2 µM.
`NCCCCOc1c(Cl)cc(C(=O)N[C@@H](Cc2ccccc2)C(N)=O)c(O)c1Cl` [Example 139] gave an IC50 of 4 µM.
For `NCCCCOc1c(Cl)cc(C(=O)N[C@@H](Cc2ccccc2)C(=O)Nc2ccc(F)cc2)c(O)c1Cl` [Example 141], the IC50 was 3 µM.
Compound `NCCCCOc1c(Cl)cc(C(=O)N[C@@H](Cc2ccccc2)C(=O)Nc2ccccn2)c(O)c1Cl` [Example 142] has an IC50 of 0.4 µM.
`Cc1noc([C@H](Cc2ccccc2)NC(=O)c2cc(Cl)c(OCCCCN)c(Cl)c2O)n1` [Example 144, N-[4-(4-Aminobutoxy)-3,5-dichloro-2-hydroxybenzoyl]-1-(3-methyl-1,2,4-oxadizaol-5-yl)-2-phenylethylamine hydrochloride] gave an IC50 of 29 µM.
`COC(=O)[C@H](Cc1ccccc1)NC(=O)c1cc2cccc(OCCCCN)c2cc1O` [Example 146, (2S)-3-Phenyl-2-[5-(4-aminobutoxy)-3-hydroxy-2-naphthoylamino]-propionic acid methyl ester hydrochloride] was tested, and the IC50 was 5 µM.
For `CCOC(=O)[C@H](Cc1ccccc1)NC(=O)c1ccc(-c2ccc(OCCCCNC)cc2)cc1` [Example 147, N-[4-[4-(4-Methylaminobutoxy)phenyl]benzoyl]-L-phenylalanine ethyl ester hydrochloride], the IC50 was 2 µM.
`CCOC(=O)[C@H](Cc1ccccc1)NC(=O)c1ccc2oc(SCCCNC)nc2c1` [Example 152, (2S)-2-[2-(3-Methylaminopropylsulfanyl)benzoxazole-5-carbonyl-amino]-3-phenylpropionic acid ethyl ester hydrochloride] gave an IC50 of 7 µM.
Compound `CCOC(=O)C(Cc1ccccc1)NC(=O)c1cc(Cl)c(OC(=O)C2(CC)CCNCC2)cc1O` (stereo not shown) [Example 156] has an IC50 of 2 µM.

Same assay, conditions: Monocyte, supernatant 20 hours after LPS
With `CN1CCN(CCOc2c(Cl)cc(C(=O)N[C@@H](Cc3ccccc3)C(=O)O)c(O)c2Cl)CC1` [Example 134] the IC50 was 0.2 µM.

Same assay, conditions: supernatant 20 hours after LPS
For `CNCCCCOc1c(Cl)cc(C(=O)N[C@@H](Cc2ccccc2)C(=O)NO)c(O)c1Cl` [Example 143, N-[3,5-Dichloro-2-hydroxy-4-(4-methylaminobutoxy)benzoyl]-L-phenylalanylhydroxyamide], the IC50 was 3 µM.

Same assay, conditions: supernatant 20 hours after LPS, listed as Example No. 88, hydrochloride
With `CNCCCCc1ccc(C(=O)N[C@@H](Cc2ccccc2)C(=O)OC)c(O)c1` [Example 88, N-[2-Hydroxy-4-(4-methylaminobutyl)benzoyl]-L-phenylalanine methyl ester hydrochloride] the IC50 was 3 µM.

Same assay, conditions: supernatant 20 hours after LPS, listed as Example No. 90
`CNCCCCc1ccc(C(=O)N[C@@H](Cc2ccccc2)C(=O)OC)c(O)c1` [Example 90] gave an IC50 of 0.6 µM.

These compounds were tested on ALT in blood (assay: Suppression of LPS/D-galactosamine-induced hepatitis). Conditions: Mus musculus, iv; dose 10 mg/kg, tail vein, 10 minutes before LPS/D-galactosamine; ALT in blood at 6 hours, male C57BL/6 mice.
Format: in vivo
Procedure: Suppression of LPS/D-galactosamine-induced hepatitis
LPS (5 μg/kg)D-galactosamine (500 mg/kg) in physiological saline was intraperitoneally injected to male C57BL/6 mice to induce hepatitis. Six hours after the injection of LPS/D-galactosamine in physiological saline, blood was taken from the mice orbital venosus plexus. Plasma was separated from the blood, and ALT in blood was determined by a biochemical analyzer. The test sample was administered from the tail vein at 10 minutes before the injection of LPS/D-galactosamine in physiological saline, and the degree of suppression was investigated. The suppression by the test sample is shown in the ratio relative to the suppression in the control group.
Suppression (%)=100-(ALT amount of group treated with test sample/ALT amount of control group)×100
In the case of `COC(=O)[C@H](Cc1ccccc1)NC(=O)c1cc(Cl)c(OCCN2CCN[C@@H](C)C2)c(Cl)c1O` [Example 61], the inhibition in vivo at 10 mg/kg is reported as 6%.
With `COC(=O)[C@H](Cc1ccccc1)NC(=O)c1cc(Cl)c(OCCN2CCN[C@@H](C)C2)c(Cl)c1OC(=O)c1ccccc1` [Example 123] the inhibition in vivo at 10 mg/kg was 41%.
